species on record: Mus musculus; assay: Minimum effective dose for anti-hyperglycaemic activity was determined in C57B1/6 ob/ob obese mouse; type: functional

| SMILES | MED |
| --- | --- |
| O=C(NCCOc1ccc(CC2SC(=O)NC2=O)cc1)Nc1ccccc1 (stereo not drawn) | 100 uM.kg/diet |
| CC1(COc2ccc(CC3SC(=O)NC3=O)cc2)CCCC(O)C1 (stereo not drawn) | 500 uM.kg/diet |
| CN(CCOc1ccc(CC2SC(=O)NC2=O)cc1)c1nc2ccccc2o1 (stereo not drawn) [BRL-48482] | 3 uM.kg/diet |
| CC1(COc2ccc(CC3SC(=O)NC3=O)cc2)CCCCC1 (stereo not drawn) [CIGLITAZONE] | 3000 uM.kg/diet |
| O=C1NC(=O)C(Cc2ccc3c(c2)CC[C@H](Cc2ccccc2)O3)S1 (stereo partly drawn) [ENGLITAZONE] | 200 uM.kg/diet |
| CCc1ccc(CCOc2ccc(CC3SC(=O)NC3=O)cc2)nc1 (stereo not drawn) [PIOGLITAZONE] | 200 uM.kg/diet |
| CN(CCOc1ccc(CC2SC(=O)NC2=O)cc1)c1ccccn1 (stereo not drawn) [ROSIGLITAZONE] | 3 µM/kg |
| Cc1c(C)c2c(c(C)c1O)CCC(C)(COc1ccc(CC3SC(=O)NC3=O)cc1)O2 (stereo not drawn) [TROGLITAZONE] | 600 uM.kg/diet |

From ChEMBL document CHEMBL1150042, “The synthesis of BRL 49653 - a novel and potent antihyperglycaemic agent” (Bioorg Med Chem Lett, 1994)
